Reference: the supplement of paper PMC8498969

Key:
[1] = system: HEK293; test: cytotoxicity IC50 (ATP content, uninfected cells); higher = less cytotoxic; conditions: infection: none
[2] = system: HEK293; test: maximal inhibition of ZIKV NS1 production (% inhibition); higher = stronger antiviral effect
Protocol: (§1)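 HEK293 cells in 1536-well plates were pre-treated with compound for 1 h, infected with ZIKV (MOI 1) for 24 h, and NS1 antigen (intra- plus extracellular) was measured by TR-FRET. Confirmation used 11-point 1:3 dilutions, and IC50 and maximal inhibition were fitted in GraphPad Prism.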

[3] = system: HEK293; test: IC50 for inhibition of ZIKV NS1 production
Protocol: as §1

SMILES: COc1cccc2c1C(=O)c1c(O)c3c(c(O)c1C2=O)C[C@@](O)(C(C)=O)C[C@@H]3O[C@H]1C[C@H](N)[C@H](O)[C@H](C)O1
- cytotoxicity IC50 [1]: > 100 µM
- maximal inhibition [2]: 66
- IC50 [3]: 0.54 µM

SMILES: NC(=O)Nc1cc(-c2cccc(F)c2)sc1C(=O)N[C@H]1CCCNC1
- cytotoxicity IC50 [1]: > 100 µM
- maximal inhibition [2]: 99
- IC50 [3]: 0.37 µM

SMILES: CC[C@@H]1C(=O)N(C)c2cnc(Nc3ccc(C(=O)N[C@H]4CC[C@H](N5CCN(CC6CC6)CC5)CC4)cc3OC)nc2N1C(C)C
- cytotoxicity IC50 [1]: > 100 µM
- maximal inhibition [2]: 101
- IC50 [3]: 0.065 µM

SMILES: CC(C)C[C@H](NC(=O)[C@H](Cc1ccccc1)NC(=O)c1cnccn1)B(O)O
- cytotoxicity IC50 [1]: 0.04 µM
- maximal inhibition [2]: 95
- IC50 [3]: 0.025 µM

SMILES: CN[C@@H]1C[C@H]2O[C@@](C)([C@@H]1OC)n1c3ccccc3c3c4c(c5c6ccccc6n2c5c31)C(=O)N[C@H]4O
- cytotoxicity IC50 [1]: 100 µM
- maximal inhibition [2]: 96
- IC50 [3]: 0.76 µM

SMILES: FC(F)c1nc2ccccc2n1-c1nc(N2CCOCC2)nc(N2CCOCC2)n1
- cytotoxicity IC50 [1]: 60 µM
- maximal inhibition [2]: 85
- IC50 [3]: 3.9 µM

SMILES: C/C=C(/C)C(=O)O[C@H]1C(C)=C2[C@H]([C@@H]1OC(=O)CCCCCCC)[C@@](C)(OC(C)=O)C[C@H](OC(=O)CCC)[C@@]1(O)[C@H]2OC(=O)[C@@]1(C)O
- cytotoxicity IC50 [1]: 40 µM
- maximal inhibition [2]: 93
- IC50 [3]: 0.17 µM

SMILES: CCc1nc(N)nc(N)c1-c1ccc(Cl)cc1
- cytotoxicity IC50 [1]: 14 µM
- maximal inhibition [2]: 88
- IC50 [3]: 45 µM

SMILES: CCOC(=O)N1CCN(/[N+]([O-])=N/Oc2ccc([N+](=O)[O-])cc2C#N)CC1
- cytotoxicity IC50 [1]: > 100 µM
- maximal inhibition [2]: 74
- IC50 [3]: 4.5 µM

SMILES: C[C@]12O[C@H](C[C@]1(O)CO)n1c3ccccc3c3c4c(c5c6ccccc6n2c5c31)CNC4=O
- cytotoxicity IC50 [1]: 15 µM
- maximal inhibition [2]: 58
- IC50 [3]: 1.7 µM

SMILES: CC(=O)OC[C@H]1O[C@@H]([S-])[C@H](OC(C)=O)[C@@H](OC(C)=O)[C@@H]1OC(C)=O.CCP(CC)CC.[Au+]
- cytotoxicity IC50 [1]: 3 µM
- maximal inhibition [2]: 107
- IC50 [3]: 3.5 µM

SMILES: Nc1ncn([C@@H]2O[C@H](CO)[C@@H](O)[C@H]2O)c(=O)n1
- cytotoxicity IC50 [1]: > 100 µM
- maximal inhibition [2]: 58
- IC50 [3]: 44 µM

SMILES: O=c1[nH]c2ccc(Cl)cc2c(N[C@@H]2CN3CCC2CC3)c1-c1nc2ccccc2[nH]1
- cytotoxicity IC50 [1]: 3.3 µM
- maximal inhibition [2]: 100
- IC50 [3]: 0.41 µM

SMILES: CN(C)c1ccc(C(=C2C=CC(=[N+](C)C)C=C2)c2ccccc2)cc1
- cytotoxicity IC50 [1]: 1.8 µM
- maximal inhibition [2]: 102
- IC50 [3]: 1.6 µM

SMILES: C[C@@]12C(=O)OC(=O)[C@]1(C)[C@H]1CC[C@@H]2O1
- cytotoxicity IC50 [1]: > 100 µM
- maximal inhibition [2]: 100
- IC50 [3]: 5.5 µM

SMILES: CCCCCC[C@H]1C(=O)O[C@H](C)[C@H](NC(=O)c2cccc(NC=O)c2O)C(=O)O[C@@H](C)[C@@H]1OC(=O)CC(C)C
- cytotoxicity IC50 [1]: 0.0055 µM
- maximal inhibition [2]: 94
- IC50 [3]: 0.012 µM

SMILES: O=C(NC1CCNCC1)c1n[nH]cc1NC(=O)c1c(Cl)cccc1Cl
- cytotoxicity IC50 [1]: 22 µM
- maximal inhibition [2]: 91
- IC50 [3]: 3.1 µM

SMILES: O=C1NCCN1CCN1CCC(c2cn(-c3ccc(F)cc3)c3ccc(Cl)cc23)CC1
- cytotoxicity IC50 [1]: 6.5 µM
- maximal inhibition [2]: 99
- IC50 [3]: 7.4 µM

SMILES: CC[C@@]1(O)C(=O)OCc2c1cc1n(c2=O)Cc2cc3ccccc3nc2-1
- cytotoxicity IC50 [1]: > 100 µM
- maximal inhibition [2]: 82
- IC50 [3]: 0.026 µM

SMILES: CC[C@]1(O)C[C@@H]2CN(CCc3c([nH]c4ccccc34)[C@@](C(=O)OC)(c3cc4c(cc3OC)N(C)[C@H]3[C@@](O)(C(=O)OC)[C@H](OC(C)=O)[C@]5(CC)C=CCN6CC[C@]43[C@@H]65)C2)C1
- cytotoxicity IC50 [1]: > 100 µM
- maximal inhibition [2]: 73
- IC50 [3]: 5.6 µM

SMILES: C=CC(=O)N1CCc2ccc(-n3c(=O)ccc4cnc5ccc(-c6cnn(C)c6)cc5c43)cc21
- cytotoxicity IC50 [1]: > 100 µM
- maximal inhibition [2]: 105
- IC50 [3]: 13 µM

SMILES: Cc1c(O)cccc1C(=O)N[C@@H](CSc1ccccc1)[C@H](O)CN1C[C@H]2CCCC[C@H]2C[C@H]1C(=O)NC(C)(C)C
- cytotoxicity IC50 [1]: > 100 µM
- maximal inhibition [2]: 84
- IC50 [3]: 24 µM

SMILES: COC[C@H](NC(=O)c1cnc(C)s1)C(=O)N[C@@H](COC)C(=O)N[C@@H](Cc1ccccc1)C(=O)[C@@]1(C)CO1
- cytotoxicity IC50 [1]: 0.72 µM
- maximal inhibition [2]: 100
- IC50 [3]: 0.32 µM

SMILES: COC(=O)Nc1nc2cc(C(=O)c3cccs3)ccc2[nH]1
- cytotoxicity IC50 [1]: > 100 µM
- maximal inhibition [2]: 68
- IC50 [3]: 1.1 µM

SMILES: Cc1c2oc3c(C)ccc(C(=O)N[C@@H]4C(=O)N[C@H](C(C)C)C(=O)N5CCC[C@H]5C(=O)N(C)CC(=O)N(C)[C@@H](C(C)C)C(=O)O[C@@H]4C)c3nc-2c(C(=O)N[C@@H]2C(=O)N[C@H](C(C)C)C(=O)N3CCC[C@H]3C(=O)N(C)CC(=O)N(C)[C@@H](C(C)C)C(=O)O[C@@H]2C)c(N)c1=O
- cytotoxicity IC50 [1]: > 100 µM
- maximal inhibition [2]: 99
- IC50 [3]: 0.35 µM

SMILES: COc1cccc2c1C(=O)c1c(O)c3c(c(O)c1C2=O)C[C@@](O)(C(=O)CO)C[C@@H]3O[C@H]1C[C@H](N)[C@@H](O)[C@H](C)O1
- cytotoxicity IC50 [1]: > 100 µM
- maximal inhibition [2]: 84
- IC50 [3]: 0.49 µM
